Assay results published in PubChem BioAssay (NCI).
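Five concentrations, 48 hours, 96-well plates. GI50 is the concentration that inhibits growth by half. TGI marks complete inhibition of growth.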

Key:
Experiment in all cases: NCI tumour cell line growth inhibition, 48 h
NCI-H226 lung = system: NCI-H226 lung
DU-145 prostate = system: DU-145 prostate
SN12C renal = system: SN12C renal
PC-3 prostate = system: PC-3 prostate
OVCAR-8 ovarian = system: OVCAR-8 ovarian
786-0 renal = system: 786-0 renal
SK-OV-3 ovarian = system: SK-OV-3 ovarian
HCT-15 colon = system: HCT-15 colon
MCF7 breast = system: MCF7 breast
OVCAR-5 ovarian = system: OVCAR-5 ovarian
NCI-H23 lung = system: NCI-H23 lung
A498 renal = system: A498 renal
CCRF-CEM leukemia = system: CCRF-CEM leukemia
KM12 colon = system: KM12 colon
U251 CNS = system: U251 CNS
SR leukemia = system: SR leukemia
HT29 colon = system: HT29 colon
SNB-19 CNS = system: SNB-19 CNS
SW-620 colon = system: SW-620 colon
RPMI-8226 leukemia = system: RPMI-8226 leukemia
MDA-MB-231 breast = system: MDA-MB-231 breast
SF-268 CNS = system: SF-268 CNS
MOLT-4 leukemia = system: MOLT-4 leukemia
COLO 205 colon = system: COLO 205 colon
A549 NSCLC = system: A549 NSCLC
MDA-N = system: MDA-N
SK-MEL-5 melanoma = system: SK-MEL-5 melanoma
HCT-116 colon = system: HCT-116 colon
HL-60(TB) leukemia = system: HL-60(TB) leukemia
M14 melanoma = system: M14 melanoma
RXF 393 renal = system: RXF 393 renal
NCI-H460 lung = system: NCI-H460 lung
K-562 leukemia = system: K-562 leukemia
UACC-62 melanoma = system: UACC-62 melanoma
UACC-257 melanoma = system: UACC-257 melanoma
HOP-92 NSCLC = system: HOP-92 NSCLC
LOX IMVI melanoma = system: LOX IMVI melanoma
SF-295 CNS = system: SF-295 CNS
NCI/ADR-RES ovarian = system: NCI/ADR-RES ovarian
CAKI-1 renal = system: CAKI-1 renal
ACHN renal = system: ACHN renal
UO-31 renal = system: UO-31 renal
HCC-2998 colon = system: HCC-2998 colon
SF-539 CNS = system: SF-539 CNS
TK-10 renal = system: TK-10 renal
SK-MEL-2 melanoma = system: SK-MEL-2 melanoma
OVCAR-4 ovarian = system: OVCAR-4 ovarian
SK-MEL-28 melanoma = system: SK-MEL-28 melanoma
MDA-MB-435 = system: MDA-MB-435
HOP-62 NSCLC = system: HOP-62 NSCLC
MALME-3M melanoma = system: MALME-3M melanoma
T-47D breast = system: T-47D breast
EKVX NSCLC = system: EKVX NSCLC
IGROV1 ovarian = system: IGROV1 ovarian
OVCAR-3 ovarian = system: OVCAR-3 ovarian
HS 578T breast = system: HS 578T breast
NCI-H522 lung = system: NCI-H522 lung
BT-549 breast = system: BT-549 breast
SNB-75 CNS = system: SNB-75 CNS

Work on `c1cc2nnnn2nc1N1CCCC1` yielded a TGI (NCI-H226 lung) of over 100 µM, a TGI (DU-145 prostate) of over 100 µM and a TGI (SN12C renal) of over 100 µM. For the same compound, the TGI (PC-3 prostate) was over 100 µM, the TGI (OVCAR-8 ovarian) was over 100 µM and the TGI (786-0 renal) was over 100 µM. The TGI (SK-OV-3 ovarian) was over 100 µM, the TGI (HCT-15 colon) was over 100 µM and the TGI (MCF7 breast) was over 100 µM. For the same compound, the TGI (OVCAR-5 ovarian) was over 100 µM, the TGI (NCI-H23 lung) was over 100 µM and the TGI (A498 renal) was over 100 µM. It also gave a TGI (CCRF-CEM leukemia) of over 100 µM, a TGI (KM12 colon) of over 100 µM and a TGI (U251 CNS) of over 100 µM. For the same compound, the TGI (SR leukemia) was over 100 µM, the TGI (HT29 colon) was over 100 µM and the TGI (SNB-19 CNS) was over 100 µM. The TGI (SW-620 colon) was over 100 µM, the TGI (RPMI-8226 leukemia) was over 100 µM and the TGI (MDA-MB-231 breast) was over 100 µM. It also gave a TGI (SF-268 CNS) of over 100 µM, a TGI (MOLT-4 leukemia) of over 100 µM and a TGI (COLO 205 colon) of over 100 µM. The TGI (A549 NSCLC) was over 100 µM, the TGI (MDA-N) was over 100 µM and the TGI (SK-MEL-5 melanoma) was over 100 µM. It also gave a TGI (HCT-116 colon) of over 100 µM, a TGI (HL-60(TB) leukemia) of over 100 µM and a TGI (M14 melanoma) of over 100 µM. It also gave a TGI (RXF 393 renal) of over 100 µM, a TGI (NCI-H460 lung) of over 100 µM and a TGI (K-562 leukemia) of over 100 µM. For the same compound, the TGI (UACC-62 melanoma) was over 100 µM, the TGI (UACC-257 melanoma) was over 100 µM and the TGI (HOP-92 NSCLC) was over 100 µM. The TGI (LOX IMVI melanoma) was over 100 µM, the TGI (SF-295 CNS) was over 100 µM and the TGI (NCI/ADR-RES ovarian) was over 100 µM. For the same compound, the TGI (CAKI-1 renal) was over 100 µM, the TGI (ACHN renal) was over 100 µM and the TGI (UO-31 renal) was over 100 µM. The TGI (HCC-2998 colon) was over 100 µM, the TGI (SF-539 CNS) was over 100 µM and the TGI (TK-10 renal) was over 100 µM. For the same compound, the TGI (SK-MEL-2 melanoma) was over 100 µM, the TGI (OVCAR-4 ovarian) was over 100 µM and the TGI (SK-MEL-28 melanoma) was over 100 µM. For the same compound, the TGI (MDA-MB-435) was over 100 µM.
`Nc1nc(SN=Nc2ccc(S(N)(=O)=O)cc2)c2[nH]cnc2n1` showed a GI50 (NCI-H226 lung) of 867 nM, a TGI (NCI-H226 lung) of over 100 µM and a GI50 (DU-145 prostate) of 469 nM. The TGI (DU-145 prostate) was over 94.8 µM, the GI50 (SN12C renal) was 698 nM and the TGI (SN12C renal) was over 100 µM. It also gave a GI50 (PC-3 prostate) of 1640 nM, a TGI (PC-3 prostate) of over 100 µM and a GI50 (HOP-62 NSCLC) of 620 nM. It also gave a TGI (HOP-62 NSCLC) of over 100 µM, a GI50 (OVCAR-8 ovarian) of 419 nM and a TGI (OVCAR-8 ovarian) of over 100 µM. It also gave a GI50 (786-0 renal) of 407 nM, a TGI (786-0 renal) of over 100 µM and a GI50 (SK-OV-3 ovarian) of 390 nM. For the same compound, the TGI (SK-OV-3 ovarian) was 13.6 µM, the GI50 (MALME-3M melanoma) was 1870 nM and the TGI (MALME-3M melanoma) was over 60.6 µM. The GI50 (HCT-15 colon) was 563 nM, the TGI (HCT-15 colon) was over 100 µM and the GI50 (MCF7 breast) was 289 nM. It also gave a TGI (MCF7 breast) of over 100 µM, a GI50 (OVCAR-5 ovarian) of 629 nM and a TGI (OVCAR-5 ovarian) of over 100 µM. The GI50 (NCI-H23 lung) was 623 nM, the TGI (NCI-H23 lung) was over 100 µM and the GI50 (T-47D breast) was 536 nM. For the same compound, the TGI (T-47D breast) was over 100 µM, the GI50 (A498 renal) was 1350 nM and the TGI (A498 renal) was 7.47 µM. The GI50 (CCRF-CEM leukemia) was 268 nM, the TGI (CCRF-CEM leukemia) was over 100 µM and the GI50 (KM12 colon) was 1640 nM. It also gave a TGI (KM12 colon) of 20 µM, a GI50 (U251 CNS) of 2660 nM and a TGI (U251 CNS) of over 100 µM. The GI50 (SR leukemia) was 186 nM, the TGI (SR leukemia) was over 100 µM and the GI50 (HT29 colon) was 790 nM. It also gave a TGI (HT29 colon) of over 100 µM, a GI50 (SNB-19 CNS) of over 78.6 µM and a TGI (SNB-19 CNS) of over 100 µM. The GI50 (SW-620 colon) was 659 nM, the TGI (SW-620 colon) was over 100 µM and the GI50 (RPMI-8226 leukemia) was 283 nM. It also gave a TGI (RPMI-8226 leukemia) of 3.33 µM, a GI50 (MDA-MB-231 breast) of 722 nM and a TGI (MDA-MB-231 breast) of over 100 µM. For the same compound, the GI50 (SF-268 CNS) was 563 nM, the TGI (SF-268 CNS) was over 100 µM and the GI50 (MOLT-4 leukemia) was 320 nM. For the same compound, the TGI (MOLT-4 leukemia) was 6.93 µM, the GI50 (COLO 205 colon) was 1420 nM and the TGI (COLO 205 colon) was 3.6 µM. The GI50 (A549 NSCLC) was 3.06 µM, the TGI (A549 NSCLC) was over 100 µM and the GI50 (EKVX NSCLC) was 714 nM. The TGI (EKVX NSCLC) was over 100 µM, the GI50 (SK-MEL-5 melanoma) was 1260 nM and the TGI (SK-MEL-5 melanoma) was 5.97 µM. For the same compound, the GI50 (HCT-116 colon) was 374 nM, the TGI (HCT-116 colon) was 15.1 µM and the GI50 (HL-60(TB) leukemia) was 2180 nM. It also gave a TGI (HL-60(TB) leukemia) of over 53.6 µM, a GI50 (M14 melanoma) of 393 nM and a TGI (M14 melanoma) of 9 µM. It also gave a GI50 (RXF 393 renal) of 394 nM, a TGI (RXF 393 renal) of 5.52 µM and a GI50 (NCI-H460 lung) of 384 nM. The TGI (NCI-H460 lung) was 13 µM, the GI50 (IGROV1 ovarian) was 1650 nM and the TGI (IGROV1 ovarian) was over 100 µM. It also gave a GI50 (K-562 leukemia) of 299 nM, a TGI (K-562 leukemia) of over 100 µM and a GI50 (UACC-62 melanoma) of 379 nM. The TGI (UACC-62 melanoma) was 5.62 µM, the GI50 (OVCAR-3 ovarian) was 511 nM and the TGI (OVCAR-3 ovarian) was 7.93 µM. For the same compound, the GI50 (HS 578T breast) was 1810 nM, the TGI (HS 578T breast) was over 50.2 µM and the GI50 (UACC-257 melanoma) was 1620 nM. The TGI (UACC-257 melanoma) was over 100 µM, the GI50 (HOP-92 NSCLC) was 429 nM and the TGI (HOP-92 NSCLC) was 22.4 µM. The GI50 (LOX IMVI melanoma) was 219 nM, the TGI (LOX IMVI melanoma) was 12.6 µM and the GI50 (NCI-H522 lung) was 1080 nM. It also gave a TGI (NCI-H522 lung) of 43.1 µM, a GI50 (SF-295 CNS) of 363 nM and a TGI (SF-295 CNS) of over 100 µM. It also gave a GI50 (NCI/ADR-RES ovarian) of 455 nM, a TGI (NCI/ADR-RES ovarian) of over 100 µM and a GI50 (BT-549 breast) of 1150 nM. The TGI (BT-549 breast) was over 100 µM, the GI50 (CAKI-1 renal) was 332 nM and the TGI (CAKI-1 renal) was 6.57 µM. It also gave a GI50 (ACHN renal) of 1600 nM, a TGI (ACHN renal) of over 100 µM and a GI50 (UO-31 renal) of 455 nM. It also gave a TGI (UO-31 renal) of over 100 µM, a GI50 (HCC-2998 colon) of 508 nM and a TGI (HCC-2998 colon) of over 100 µM. The GI50 (SF-539 CNS) was 552 nM, the TGI (SF-539 CNS) was over 100 µM and the GI50 (TK-10 renal) was 448 nM. The TGI (TK-10 renal) was 23.6 µM, the GI50 (SK-MEL-2 melanoma) was 1240 nM and the TGI (SK-MEL-2 melanoma) was over 100 µM. The GI50 (OVCAR-4 ovarian) was 581 nM, the TGI (OVCAR-4 ovarian) was over 51.1 µM and the GI50 (SNB-75 CNS) was 354 nM. For the same compound, the TGI (SNB-75 CNS) was over 21.7 µM, the GI50 (SK-MEL-28 melanoma) was 2290 nM and the TGI (SK-MEL-28 melanoma) was over 52.5 µM. The GI50 (MDA-MB-435) was 390 nM and the TGI (MDA-MB-435) was over 100 µM.
